Experimental findings from ChEMBL document CHEMBL1681705, “Optimisation of ITK inhibitors through successive iterative design cycles” (Bioorg Med Chem Lett, 2011) are described below.

Assay [1] in a line: Inhibition of ROCK1 at 0.1 uM; values are per cent of control.
Assay [2] deals with Protein-tyrosine kinase 2-beta (Homo sapiens) (UniProt Q14289). Put plainly: Inhibition of Pyk2 at 0.1 uM; values are per cent of control.
The target in assay [3] is RAC-beta serine/threonine-protein kinase (Homo sapiens) (UniProt P31751). Description: Inhibition of PKBbeta at 1 uM; values are per cent of control.
Sequence of RAC-beta serine/threonine-protein kinase (Homo sapiens) (P31751 whole entry): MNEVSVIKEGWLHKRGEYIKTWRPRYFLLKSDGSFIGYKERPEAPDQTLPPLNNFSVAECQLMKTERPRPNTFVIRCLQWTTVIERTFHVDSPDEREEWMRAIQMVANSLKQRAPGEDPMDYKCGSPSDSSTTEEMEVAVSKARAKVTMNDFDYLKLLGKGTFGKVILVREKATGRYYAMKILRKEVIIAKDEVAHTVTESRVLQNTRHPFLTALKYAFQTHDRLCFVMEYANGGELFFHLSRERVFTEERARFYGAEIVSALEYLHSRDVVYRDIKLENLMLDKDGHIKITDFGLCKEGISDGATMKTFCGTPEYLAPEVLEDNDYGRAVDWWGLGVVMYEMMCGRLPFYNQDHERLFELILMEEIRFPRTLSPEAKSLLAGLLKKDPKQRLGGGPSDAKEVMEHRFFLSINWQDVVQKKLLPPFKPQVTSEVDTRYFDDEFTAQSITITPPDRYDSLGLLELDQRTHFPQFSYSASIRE
The target in assay [4] is T1, Ephrin type-A receptor 1 (Homo sapiens) (UniProt P21709).
T1 sequence (whole entry): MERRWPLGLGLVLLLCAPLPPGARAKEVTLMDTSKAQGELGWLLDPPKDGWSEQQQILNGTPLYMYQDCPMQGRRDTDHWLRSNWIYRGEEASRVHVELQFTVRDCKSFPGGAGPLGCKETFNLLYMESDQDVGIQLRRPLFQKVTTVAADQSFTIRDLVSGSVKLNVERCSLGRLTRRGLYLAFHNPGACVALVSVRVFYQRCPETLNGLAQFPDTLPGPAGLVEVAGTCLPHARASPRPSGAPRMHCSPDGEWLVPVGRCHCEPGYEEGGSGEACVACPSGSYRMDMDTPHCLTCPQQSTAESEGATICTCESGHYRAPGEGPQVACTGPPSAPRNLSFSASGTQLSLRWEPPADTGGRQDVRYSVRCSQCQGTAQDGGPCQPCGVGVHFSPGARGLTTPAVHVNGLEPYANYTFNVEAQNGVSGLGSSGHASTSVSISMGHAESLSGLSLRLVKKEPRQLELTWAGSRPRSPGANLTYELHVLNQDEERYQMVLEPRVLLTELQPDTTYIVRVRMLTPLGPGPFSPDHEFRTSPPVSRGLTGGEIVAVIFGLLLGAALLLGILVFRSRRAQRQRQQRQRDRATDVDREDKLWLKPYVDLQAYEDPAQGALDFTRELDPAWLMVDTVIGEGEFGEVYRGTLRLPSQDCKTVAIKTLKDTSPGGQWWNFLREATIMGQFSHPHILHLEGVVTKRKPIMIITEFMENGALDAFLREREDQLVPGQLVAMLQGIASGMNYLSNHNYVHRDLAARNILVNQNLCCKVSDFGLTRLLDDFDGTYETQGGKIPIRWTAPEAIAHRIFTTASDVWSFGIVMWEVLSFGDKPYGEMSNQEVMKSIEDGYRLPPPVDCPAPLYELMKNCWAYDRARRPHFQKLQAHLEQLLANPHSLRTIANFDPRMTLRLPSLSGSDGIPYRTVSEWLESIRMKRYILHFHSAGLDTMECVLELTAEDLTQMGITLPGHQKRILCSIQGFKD
Put plainly: Inhibition of EphA1 at 0.1 uM; values are per cent of control.

The target in assay [5] is MAP kinase-interacting serine/threonine-protein kinase 2 (Homo sapiens) (UniProt Q9HBH9). Put plainly: Inhibition of Mnk2 at 0.1 uM; values are per cent of control.
Sequence of MAP kinase-interacting serine/threonine-protein kinase 2 (Homo sapiens) (Q9HBH9 whole entry, looked up): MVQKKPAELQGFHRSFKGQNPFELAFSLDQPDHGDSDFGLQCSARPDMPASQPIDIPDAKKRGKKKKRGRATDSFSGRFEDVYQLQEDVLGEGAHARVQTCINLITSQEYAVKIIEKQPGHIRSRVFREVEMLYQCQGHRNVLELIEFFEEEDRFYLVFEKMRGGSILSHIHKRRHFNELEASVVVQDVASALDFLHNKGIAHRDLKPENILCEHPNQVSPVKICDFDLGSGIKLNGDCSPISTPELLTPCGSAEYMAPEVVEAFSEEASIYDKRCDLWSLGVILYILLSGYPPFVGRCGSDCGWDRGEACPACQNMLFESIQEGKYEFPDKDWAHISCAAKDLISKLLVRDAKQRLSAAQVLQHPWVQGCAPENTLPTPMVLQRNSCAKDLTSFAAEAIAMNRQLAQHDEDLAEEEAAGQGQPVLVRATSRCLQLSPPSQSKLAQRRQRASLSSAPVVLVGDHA
Assay [6] has as its target T2, Ephrin type-A receptor 3 (Homo sapiens) (UniProt P29320).
T2 sequence (whole entry): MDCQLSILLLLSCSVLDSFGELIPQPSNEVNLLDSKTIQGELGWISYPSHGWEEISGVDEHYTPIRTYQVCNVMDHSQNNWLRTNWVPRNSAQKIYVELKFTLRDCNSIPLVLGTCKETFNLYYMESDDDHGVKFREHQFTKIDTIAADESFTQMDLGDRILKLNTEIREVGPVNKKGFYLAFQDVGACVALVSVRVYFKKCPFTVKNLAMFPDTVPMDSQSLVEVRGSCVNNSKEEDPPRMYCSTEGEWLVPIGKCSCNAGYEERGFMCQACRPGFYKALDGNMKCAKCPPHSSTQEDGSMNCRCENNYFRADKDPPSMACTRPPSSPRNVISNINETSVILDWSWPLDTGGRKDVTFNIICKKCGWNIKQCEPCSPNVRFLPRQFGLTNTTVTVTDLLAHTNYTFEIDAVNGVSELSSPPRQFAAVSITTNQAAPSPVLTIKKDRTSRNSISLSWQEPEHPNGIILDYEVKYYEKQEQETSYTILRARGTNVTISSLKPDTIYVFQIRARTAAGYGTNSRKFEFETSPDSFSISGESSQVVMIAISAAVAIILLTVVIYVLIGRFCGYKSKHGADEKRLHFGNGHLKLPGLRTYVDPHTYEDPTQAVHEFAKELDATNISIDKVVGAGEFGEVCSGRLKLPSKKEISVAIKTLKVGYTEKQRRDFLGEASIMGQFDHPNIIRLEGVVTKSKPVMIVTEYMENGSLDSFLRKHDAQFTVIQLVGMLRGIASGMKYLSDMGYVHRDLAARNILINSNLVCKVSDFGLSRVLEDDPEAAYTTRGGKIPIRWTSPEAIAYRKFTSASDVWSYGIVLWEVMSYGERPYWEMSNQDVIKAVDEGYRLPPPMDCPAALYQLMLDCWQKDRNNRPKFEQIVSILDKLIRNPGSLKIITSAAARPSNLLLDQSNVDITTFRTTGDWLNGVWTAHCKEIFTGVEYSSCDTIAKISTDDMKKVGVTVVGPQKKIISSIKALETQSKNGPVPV
Put plainly: Inhibition of EphA3 at 1 uM; values are per cent of control.

In assay [7] the target is T3, Activin receptor type-1B (Homo sapiens) (UniProt P36896).
T3 sequence (whole entry): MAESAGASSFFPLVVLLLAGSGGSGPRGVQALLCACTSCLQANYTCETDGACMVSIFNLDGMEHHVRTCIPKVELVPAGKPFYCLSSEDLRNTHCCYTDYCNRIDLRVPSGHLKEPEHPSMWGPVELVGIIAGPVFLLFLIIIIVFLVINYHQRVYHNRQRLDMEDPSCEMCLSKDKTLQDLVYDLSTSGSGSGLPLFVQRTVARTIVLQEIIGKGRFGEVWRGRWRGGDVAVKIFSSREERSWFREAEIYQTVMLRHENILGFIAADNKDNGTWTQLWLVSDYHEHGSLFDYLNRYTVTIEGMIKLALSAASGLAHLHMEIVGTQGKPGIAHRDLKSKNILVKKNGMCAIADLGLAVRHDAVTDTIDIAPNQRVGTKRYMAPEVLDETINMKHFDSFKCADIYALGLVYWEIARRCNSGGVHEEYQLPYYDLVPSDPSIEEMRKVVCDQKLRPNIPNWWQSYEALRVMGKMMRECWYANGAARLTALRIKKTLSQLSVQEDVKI
Description: Inhibition of ALK4 at 1 uM; values are per cent of control.

The target of assay [8] is Dual specificity mitogen-activated protein kinase kinase 1 (Homo sapiens) (UniProt Q02750). Put plainly: Inhibition of MEK1 at 0.1 uM; values are per cent of control.
Sequence of Dual specificity mitogen-activated protein kinase kinase 1 (Homo sapiens) (Q02750 whole entry): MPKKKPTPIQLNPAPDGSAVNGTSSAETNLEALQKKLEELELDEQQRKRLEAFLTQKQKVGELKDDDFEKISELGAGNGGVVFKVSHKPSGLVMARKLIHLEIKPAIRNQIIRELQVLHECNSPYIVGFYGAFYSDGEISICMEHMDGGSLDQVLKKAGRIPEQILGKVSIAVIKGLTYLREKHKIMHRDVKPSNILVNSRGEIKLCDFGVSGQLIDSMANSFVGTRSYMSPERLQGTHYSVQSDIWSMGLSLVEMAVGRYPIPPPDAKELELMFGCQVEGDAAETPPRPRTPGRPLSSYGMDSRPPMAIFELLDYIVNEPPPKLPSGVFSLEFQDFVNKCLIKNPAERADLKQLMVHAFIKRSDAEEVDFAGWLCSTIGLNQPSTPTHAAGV
Assay [9] has as its target Serine/threonine-protein kinase pim-1 (Homo sapiens) (UniProt P11309). Description: Inhibition of Pim-1 at 0.1 uM; values are per cent of control.

SMILES strings stand for the structures.

Sequence of Protein-tyrosine kinase 2-beta (Homo sapiens) (Q14289 whole entry, looked up): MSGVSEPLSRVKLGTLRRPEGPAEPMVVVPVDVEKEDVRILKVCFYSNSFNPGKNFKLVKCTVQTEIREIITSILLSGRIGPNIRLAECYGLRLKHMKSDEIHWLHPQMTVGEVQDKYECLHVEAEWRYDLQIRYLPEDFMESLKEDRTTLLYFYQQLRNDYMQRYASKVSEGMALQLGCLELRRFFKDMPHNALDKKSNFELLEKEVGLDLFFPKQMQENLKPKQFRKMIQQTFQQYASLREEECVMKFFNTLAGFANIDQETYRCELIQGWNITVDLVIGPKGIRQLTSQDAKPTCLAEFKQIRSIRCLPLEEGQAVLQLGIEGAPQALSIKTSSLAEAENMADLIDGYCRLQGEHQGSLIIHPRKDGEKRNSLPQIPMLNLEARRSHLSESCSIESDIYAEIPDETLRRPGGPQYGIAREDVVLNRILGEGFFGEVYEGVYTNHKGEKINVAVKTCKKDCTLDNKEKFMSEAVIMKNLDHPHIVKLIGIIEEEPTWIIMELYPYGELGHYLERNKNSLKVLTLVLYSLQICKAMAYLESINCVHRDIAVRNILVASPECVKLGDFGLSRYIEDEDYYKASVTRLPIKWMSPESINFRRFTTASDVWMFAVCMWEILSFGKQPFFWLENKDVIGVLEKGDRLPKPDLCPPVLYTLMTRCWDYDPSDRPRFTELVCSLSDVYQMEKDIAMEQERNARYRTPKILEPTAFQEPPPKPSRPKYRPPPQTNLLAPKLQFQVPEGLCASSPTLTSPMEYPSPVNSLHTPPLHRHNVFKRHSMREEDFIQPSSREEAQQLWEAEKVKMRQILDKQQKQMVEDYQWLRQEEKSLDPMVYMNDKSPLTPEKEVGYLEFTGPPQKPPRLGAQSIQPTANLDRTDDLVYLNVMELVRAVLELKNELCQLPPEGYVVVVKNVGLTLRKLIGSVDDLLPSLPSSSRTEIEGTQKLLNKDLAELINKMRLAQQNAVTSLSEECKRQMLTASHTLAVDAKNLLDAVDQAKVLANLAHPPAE
Sequence of Serine/threonine-protein kinase pim-1 (Homo sapiens) (P11309 whole entry, looked up): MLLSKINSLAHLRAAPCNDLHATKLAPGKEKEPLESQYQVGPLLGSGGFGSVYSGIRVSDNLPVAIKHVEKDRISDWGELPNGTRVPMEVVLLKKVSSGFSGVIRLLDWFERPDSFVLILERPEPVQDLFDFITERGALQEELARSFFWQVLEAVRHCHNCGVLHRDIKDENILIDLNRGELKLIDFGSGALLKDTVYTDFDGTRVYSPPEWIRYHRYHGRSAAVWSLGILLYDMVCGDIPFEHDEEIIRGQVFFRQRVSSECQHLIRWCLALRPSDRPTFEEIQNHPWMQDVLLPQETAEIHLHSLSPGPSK

Consider `Cc1ccc2cc(-c3n[nH]c4ccc(NC5CCNC5)cc34)[nH]c2c1` (stereo not drawn), for which the residual activity in assay [1] turned out to be 47%; in assay [2], 71%; in assay [3] it was 88%; in assay [4], 39%; in assay [5], 52%; in assay [6], 29%. Also, the residual activity in assay [7] was 114%; in assay [8] it was 51%; in assay [9] it was 100%.
In the case of `Cc1ccc2cc(-c3n[nH]c4ccc(NC5CCN(Cc6ccccc6)CC5)cc34)[nH]c2c1`, the residual activity in [1] came out at 92%; in assay [2], 66%; in [3] it was 85%; in assay [4], 64%; in assay [5], 101%; in assay [6] it was 14%. Moreover, the results for the residual activity in assay [7], in assay [8] and in [9] were 103%, 96% and 106%, respectively.
